We go through 17 compounds from ChEMBL document CHEMBL1134858, “Identification of a novel 1'-[5-((3,5-dichlorobenzoyl)methylamino)-3-(3,4-dichlorophenyl)-4-(methoxyimino)pentyl]-2-oxo-(1,4'-bipiperidine) as a dual NK(1)/NK(2) antagonist” (Bioorg Med Chem Lett, 2002).

pKi: −log10 of the molar value. Values joined by “and” are separate entries in the source; they are usually repeats but may differ in a detail not shown here. Equal entries are not always repeated.

Data set [1] deals with T1, Substance-K receptor (Cavia porcellus, UniProt Q64077).
T1 sequence (Q64077 whole entry): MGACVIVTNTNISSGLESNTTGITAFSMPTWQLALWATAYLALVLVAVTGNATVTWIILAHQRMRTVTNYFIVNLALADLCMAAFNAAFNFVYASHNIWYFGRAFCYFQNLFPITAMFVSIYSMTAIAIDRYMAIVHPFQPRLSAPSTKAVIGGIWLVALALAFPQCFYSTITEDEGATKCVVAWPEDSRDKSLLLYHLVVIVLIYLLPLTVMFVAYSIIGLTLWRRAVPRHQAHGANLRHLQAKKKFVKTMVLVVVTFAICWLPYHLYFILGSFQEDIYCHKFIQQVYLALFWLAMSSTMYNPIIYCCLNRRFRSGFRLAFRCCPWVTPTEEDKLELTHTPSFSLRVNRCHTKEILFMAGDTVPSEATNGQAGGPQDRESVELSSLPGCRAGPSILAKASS
Description: In vitro functional NK2 activity as inhibition of guinea pig bronchoconstriction. It counts as tissue-based, Lung. The following applies: read-out: pA2 (converted).

Data set [2] has as its target T1, Substance-K receptor. Description: In vitro binding to Tachykinin receptor 2.
For data set [3], the target named is T2, Substance-P receptor (Cavia porcellus, UniProt P30547). In words: In vitro binding to Tachykinin receptor 1.
T2 sequence (P30547 whole entry): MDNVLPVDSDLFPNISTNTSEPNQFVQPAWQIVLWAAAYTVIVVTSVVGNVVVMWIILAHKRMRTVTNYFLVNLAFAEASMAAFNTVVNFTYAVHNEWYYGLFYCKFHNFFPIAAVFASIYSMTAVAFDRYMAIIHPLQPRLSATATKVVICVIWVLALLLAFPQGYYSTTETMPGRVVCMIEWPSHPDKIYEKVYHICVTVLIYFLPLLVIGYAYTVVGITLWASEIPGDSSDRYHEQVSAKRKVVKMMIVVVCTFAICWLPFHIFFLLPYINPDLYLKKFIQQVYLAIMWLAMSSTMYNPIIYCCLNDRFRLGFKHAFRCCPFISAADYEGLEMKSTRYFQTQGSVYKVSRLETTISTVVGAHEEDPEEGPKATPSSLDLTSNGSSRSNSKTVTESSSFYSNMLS
In data set [4] the target is T2, Substance-P receptor. In words: In vitro functional NK1 activity as inhibition of guinea pig bronchoconstriction. It counts as tissue-based, Lung. The following applies: read-out: pA2 (converted).
For data set [5], the system named is Cavia porcellus. Description: In vivo NK2 activity is characterized by the compounds ability to inhibit bronchoconstriction produced by a NKA challenge. It counts as functional. The following applies: Lung.
Data set [6] can be described thus: AUC in dog at 0-24 hr by peroral administration at 3 mpk. It counts as ADME, organism-based, Canis lupus familiaris. Further details: dose 3 mpk, time < 24 hr, route oral. The following applies: plasma, po, 3 mg/kg.
The subject of data set [7] is Cavia porcellus. In words: In vivo NK1 activity in the guinea pig is characterized by the compounds ability to inhibit the increase in airway microvascular leakage (AML) produced by a SP challenge. The class given is functional.
The nature of data set [8]: Bioavailability in dog. It counts as ADME, organism-based, Canis lupus familiaris. The following applies: in vivo.
The test system of data set [9] is Cavia porcellus. Description: In vivo NK2 activity is characterized by the compounds ability to inhibit bronchoconstriction produced by a NKA challenge at 10 mg/kg. It counts as functional. The following applies: Lung.
The test system of data set [10] is Cavia porcellus. In words: In vivo NK1 activity in the guinea pig is characterized by the compounds ability to inhibit the increase in airway microvascular leakage (AML) produced by a SP challenge at 10 mg/kg. The class given is functional.
The target in data set [11] is T1, Substance-K receptor. In words: […] is characterized by the compound ability to inhibit guinea pig bronchoconstriction. The class given is functional, Lung. The following applies: read-out: pA2 (converted).
The subject of data set [12] is Cavia porcellus. In words: In vivo NK2 activity is characterized by the compounds ability to inhibit bronchoconstriction produced by a NKA challenge at 10 mpk. It counts as functional. The following applies: Lung.

What is called pKi is the negative decadic logarithm of the Ki, by convention in mol/L. High values mean a low Ki, low ones a high Ki. On to `CO/N=C(\CN(C)C(=O)c1cc(Cl)cc(Cl)c1)C(CCN1CCC(N2CCCCC2=O)CC1)c1ccc(Cl)c(Cl)c1` (stereo not given), for which, on Substance-K receptor [1], the Kb is 50.1 nM. Moreover, the pKi at Substance-K receptor [2] was 8.70; at Substance-P receptor [3], 8.30.
On to `CO/N=C(\CN(C)C(=O)c1cc(Cl)cc(Cl)c1)[C@@H](CCN1CCC(N2CCCC(CC(=O)N(C)C)C2=O)CC1)c1ccc(Cl)c(Cl)c1` (stereo not given in full), for which the Kb was 39.8 nM on Substance-K receptor [1] and 10 nM at Substance-P receptor [4]. Moreover, the pKi on Substance-K receptor [2] is 9.52; at Substance-P receptor [3], 9.10.
As a reminder, the ED50 is the dose that gives a 50% effect, or the effect in half of the subjects. A lower ED50 goes with an effect at a small dose. Usually AUC stands for concentration integrated over time. Read a low AUC as less exposure. As for `CO/N=C(\CN(C)C(=O)c1cc(Cl)cc(Cl)c1)[C@H](CCN1CCC(N2CCCC(CC(=O)N(C)C)C2=O)CC1)c1ccc(Cl)c(Cl)c1` (stereo not given in full), the Kb is 39.8 nM at Substance-K receptor [1] and 12.6 nM on Substance-P receptor [4]. The median effective dose (ED50) in the data set with Cavia porcellus [5] and with Cavia porcellus [7] was 3 mg/kg each time. The figures for the pKi at Substance-K receptor [2] and on Substance-P receptor [3] were 9.70 and 9.10, respectively. In [6], the AUC at 24 h worked out at 3460 ng·h/mL.
What is called bioavailability is the share of a dose that reaches the circulation, judged against a reference dose that is usually intravenous. On to `CO/N=C(\CN(C)C(=O)c1cc(Cl)cc(Cl)c1)[C@H](CCN1CCC(N2CCCCC2=O)CC1)c1ccc(Cl)c(Cl)c1`, for which the Kb at Substance-K receptor [1] was 20 nM; on Substance-P receptor [4], 10 nM. In addition, the ED50 came out at 3 mg/kg in the data set with Cavia porcellus [5] and 1 mg/kg with Cavia porcellus [7]. Also, the negative-log Ki (pKi) on Substance-K receptor [2] is 9.10 and 9.00; at Substance-P receptor [3] it was 8.92 and 9.00. This compound showed a bioavailability in [8] of 5%. The compound further registered an AUC at 24 h in data set [6] of 1220 ng·h/mL.
`CO/N=C(\CN(C)C(=O)c1cc(Cl)cc(Cl)c1)C(CCN1CCC(N2CCCC(CC(=O)N(C)C)C2=O)CC1)c1ccc(Cl)c(Cl)c1` (stereo not given): at Substance-K receptor [1], the Kb was 63.1 nM. Further, the negative-log Ki (pKi) at Substance-K receptor [2] and at Substance-P receptor [3] was 9.00 each time.
On to `CO/N=C(\CN(C)C(=O)c1cc(Cl)cc(Cl)c1)C(CCN1CCC(N2CCCC(CC(=O)N3CC(O)C3)C2=O)CC1)c1ccc(Cl)c(Cl)c1` (stereo not given), for which, on Substance-K receptor [1], the Kb is 25.1 nM. The pKi on Substance-K receptor [2] is 8.70; at Substance-P receptor [3], 8.52.
A word on the inhibition in vivo: it is the relative decrease from the control value, in per cent. A low value points to a response near the control. On to `CO/N=C(\CN(C)C(=O)c1cc(Cl)cc(Cl)c1)[C@H](CCN1CCC(N2CCCC(CC(=O)N3CCOCC3)C2=O)CC1)c1ccc(Cl)c(Cl)c1` (stereo not given in full), for which the results for the Kb at Substance-K receptor [1] and at Substance-P receptor [4] were 12.6 nM and 15.8 nM, respectively. Besides, the pKi was 9.40 on Substance-K receptor [2] and 9.15 at Substance-P receptor [3]. In addition, the inhibition in vivo at 10 mg/kg with Cavia porcellus [9] was found to be 97%; in the data set with Cavia porcellus [10], 47%.
Regarding `CNC(=O)CC1CCCN(C2CCN(CCC(/C(CN(C)C(=O)c3cc(Cl)cc(Cl)c3)=N/OC)c3ccc(Cl)c(Cl)c3)CC2)C1=O` (stereo not given), the Kb on Substance-K receptor [1] is 50.1 nM. The pKi at Substance-K receptor [2] and on Substance-P receptor [3] was 8.70 in each case.
As to `CO/N=C(\CN(C)C(=O)c1cc(Cl)cc(Cl)c1)[C@@H](CCN1CCC(N2CCCC(CC(=O)N3CCOCC3)C2=O)CC1)c1ccc(Cl)c(Cl)c1` (stereo not given in full), the Kb at Substance-K receptor [1] was 126 nM; at Substance-P receptor [4] it was 6.31 nM. Besides, the pKi at Substance-K receptor [2] and at Substance-P receptor [3] was 9.10 in each case.
Regarding `CO/N=C(\CN(C)C(=O)c1cc(Cl)cc(Cl)c1)C(CCN1CCC(N2CCCC(CC(N)=O)C2=O)CC1)c1ccc(Cl)c(Cl)c1` (stereo not given), the Kb at Substance-K receptor [1] is 100 nM. Besides, the pKi is 8.52 at Substance-K receptor [2] and 8.70 on Substance-P receptor [3].
Take `CO/N=C(\CN(C)C(=O)c1cc(Cl)cc(Cl)c1)[C@@H](CCN1CCC(N2CCCC(CC(=O)N3CC(O)C3)C2=O)CC1)c1ccc(Cl)c(Cl)c1` (stereo not given in full): the Kb on Substance-K receptor [11] is 501 nM. Further, the pKi was 9.22 on Substance-K receptor [2] and 8.96 at Substance-P receptor [3].
For `CNC(=O)CC1CCCN(C2CCN(CC[C@@H](/C(CN(C)C(=O)c3cc(Cl)cc(Cl)c3)=N/OC)c3ccc(Cl)c(Cl)c3)CC2)C1=O` (stereo not given in full), the Kb at Substance-K receptor [1] was 15.8 nM; on Substance-P receptor [4], 12.6 nM. Moreover, the ED50 with Cavia porcellus [5] turned out to be 3 mg/kg; in the data set with Cavia porcellus [7], 1 mg/kg. In addition, the negative-log Ki (pKi) on Substance-K receptor [2] was 9.40; at Substance-P receptor [3], 8.89. This compound displayed a bioavailability in data set [8] of 66%. The same compound showed an area under the curve (AUC) at 24 h in [6] of 13600 ng·h/mL.
Turning to `CO/N=C(\CN(C)C(=O)c1cc(Cl)cc(Cl)c1)C(CCN1CCC(N2CCCC(CC(=O)N3CCOCC3)C2=O)CC1)c1ccc(Cl)c(Cl)c1` (stereo not given), the Kb at Substance-K receptor [1] was 50.1 nM. The negative-log Ki (pKi) at Substance-K receptor [2] and on Substance-P receptor [3] was 9.00 each time.
For the compound `CNC(=O)CC1CCCN(C2CCN(CC[C@H](/C(CN(C)C(=O)c3cc(Cl)cc(Cl)c3)=N/OC)c3ccc(Cl)c(Cl)c3)CC2)C1=O` (stereo not given in full), the values for the Kb at Substance-K receptor [1] and on Substance-P receptor [4] were 39.8 nM and 10 nM, respectively. For the same compound, the pKi on Substance-K receptor [2] is 9.05; at Substance-P receptor [3], 8.82.
The like results for `CO/N=C(\CN(C)C(=O)c1cc(Cl)cc(Cl)c1)[C@@H](CCN1CCC(N2CCCC(CC(N)=O)C2=O)CC1)c1ccc(Cl)c(Cl)c1` (stereo not given in full) were, in that order, 50.1 nM, 20 nM, 9.52 and 9.40.
Turning to `CO/N=C(\CN(C)C(=O)c1cc(Cl)cc(Cl)c1)[C@H](CCN1CCC(N2CCCC(CC(=O)N3CC(O)C3)C2=O)CC1)c1ccc(Cl)c(Cl)c1` (stereo not given in full), the Kb at Substance-K receptor [1] was 50.1 nM; at Substance-P receptor [4] it was 10 nM. Further, the figures for the pKi on Substance-K receptor [2] and on Substance-P receptor [3] were 9.52 and 9.22, respectively. Also, the inhibition in vivo at 10 mg/kg in the data set with Cavia porcellus [12] worked out at 64%; with Cavia porcellus [10] it was 45%.
For `CO/N=C(\CN(C)C(=O)c1cc(Cl)cc(Cl)c1)[C@H](CCN1CCC(N2CCCC(CC(N)=O)C2=O)CC1)c1ccc(Cl)c(Cl)c1` (stereo not given in full), the Kb on Substance-K receptor [1] and on Substance-P receptor [4] was 10 nM in each case. Moreover, the median effective dose (ED50) in the data set on Cavia porcellus [5] was 4 mg/kg; with Cavia porcellus [7], 1 mg/kg. Moreover, the pKi on Substance-K receptor [2] is 9.52; at Substance-P receptor [3], 9.10. The compound also displayed a bioavailability in [8] of 37%. The compound further had an AUC at 24 h in [6] of 9490 ng·h/mL.
